Results taken from patent publication US6670348B1, “Methods and compositions for destruction of selected proteins” (Sloan-Kettering Institute for Cancer Research, priority 1997, dated 2003).

How the values were obtained:
[1] = system: ErbB2; assay: Immunoblotting for receptor presence in MCF-7 cells exposed to compound; type: cell-based; design: key: +: the receptor was detected by immunoblotting; −: it was not detectable; ±: a weak or equivocal result
[2] = system: Raf-1; assay: as above; type: cell-based; design: key: +: the receptor was detected by immunoblotting; −: it was not detectable; ±: a weak or equivocal result
[3] = system: insulin-like growth factor 1 receptor (IGF1-R); assay: as above; type: cell-based; design: key to IGFI-R detected by immunoblotting: +: the receptor was detected by immunoblotting; −: it was not detectable; ±: a weak or equivocal result; details: for IGFI-R detected by immunoblotting: Table 2
[4] = system: ErbB2; assay: Immunoblotting for receptor presence in LNCaP prostate cancer cells; type: cell-based; design: key: +: the receptor was detected by immunoblotting; −: it was not detectable; ±: a weak or equivocal result; details: Table 3
[5] = system: androgen receptor; assay: as above; type: cell-based; design: key to androgen receptor detected by immunoblotting: +: the receptor was detected by immunoblotting; −: it was not detectable; ±: a weak or equivocal result; details: for androgen receptor detected by immunoblotting: Table 3
[6] = target: T1, estrogen receptor (Homo sapiens, UniProt P03372); assay: Immunoblotting for receptor presence in MCF-7 cells exposed to compound; type: cell-based
T1 construct: testing for the presence of the receptor using receptor-specific antibodies in an immunoblotting experiment; endogenous in cells; host or cells: MCF-7
Description: (§1) The effects of these compounds on receptor of various types were evaluated by exposing MCF-7 breast cancer cells, in vitro, to 1 μM levels of the compounds for varying periods of time, and then testing for the presence of the receptor using receptor-specific antibodies in an immunoblotting experiment.

[7] = system: PI3 kinase; assay: Inhibition of PI3 kinase activity; type: biochemical; details: FIG. 12
[8] = system: Raf-1; assay: Relative activity of FIG. 9A-9G compounds; type: cell-based; design: key: ++++: most active; −: minimal activity; details: Table 4
Description: The compounds of FIGS. 9A-9G have been tested for activity with respect to erbB2 (Her2), raf-1 and estrogen receptors.

[9] = target: T1, estrogen receptor; assay: Relative activity of FIG. 9A-9G compounds; type: cell-based; design: key to the marks not given beside the values; details: Table 4
[10] = system: estrogen receptors and ErbB2 receptors; assay: Selectivity across receptor panel, immunoblotting in MCF-7 cells; type: cell-based; details: 1 μM
Description: as §1, with “experiment. The results are summarized in Table 1, where GM-4-E2 indicates a geldanamycin-estradiol compound with a 4-carbon tether.” for “experiment.”

[11] = system: ErbB2; assay: Immunoblotting of LN-CAP cells exposed to GM or GM-T (Example 2); type: cell-based; details: immunoblotting over time, geldanamycin at 0.25 and 1 ug/ml, FIG. 8A
[12] = MCF-7 cells, 1 μM, exposure time 0 hours, Table 1
[13] = MCF-7 cells, 1 μM, exposure time 3 hours, Table 1
[14] = MCF-7 cells, 1 μM, exposure time 6 hours, Table 1
[15] = MCF-7 cells, 1 μM, exposure time 12 hours, Table 1
[16] = MCF-7 cells, 1 μM, exposure time 24 hours, Table 1
[17] = repeat experiment (Example 5), exposure time 0 hours, Table 2
[18] = repeat experiment (Example 5), exposure time 6 hours, Table 2
[19] = repeat experiment (Example 5), exposure time 12 hours, Table 2
[20] = repeat experiment (Example 5), exposure time 24 hours, Table 2
[21] = Example 5, exposure time 0 hours
[22] = Example 5, exposure time 6 hours
[23] = Example 5, exposure time 12 hours
[24] = Example 5, exposure time 24 hours

T1 sequence (P03372 whole entry): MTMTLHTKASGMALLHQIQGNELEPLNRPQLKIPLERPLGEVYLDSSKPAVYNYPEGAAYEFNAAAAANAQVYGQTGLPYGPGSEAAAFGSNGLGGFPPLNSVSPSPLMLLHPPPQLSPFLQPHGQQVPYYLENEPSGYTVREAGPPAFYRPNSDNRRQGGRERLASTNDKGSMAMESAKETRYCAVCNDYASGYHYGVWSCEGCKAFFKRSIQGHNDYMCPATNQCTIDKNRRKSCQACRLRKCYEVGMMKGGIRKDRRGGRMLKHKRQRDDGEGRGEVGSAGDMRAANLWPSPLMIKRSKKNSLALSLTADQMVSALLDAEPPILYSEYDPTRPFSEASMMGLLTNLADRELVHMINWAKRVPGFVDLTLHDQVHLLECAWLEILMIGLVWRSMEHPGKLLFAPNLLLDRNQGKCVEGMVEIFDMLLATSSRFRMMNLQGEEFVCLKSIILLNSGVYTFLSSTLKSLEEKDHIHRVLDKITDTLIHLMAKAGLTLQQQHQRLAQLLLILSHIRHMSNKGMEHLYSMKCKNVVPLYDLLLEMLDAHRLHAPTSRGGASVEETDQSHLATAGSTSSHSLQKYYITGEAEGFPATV

COC1=C2C[C@@H](C)C[C@H](OC)[C@H](O)[C@@H](C)/C=C(\C)[C@H](OC(N)=O)[C@@H](OC)/C=C\C=C(/C)C(=O)NC(=CC1=O)C2=O [GM, geldanamycin, reference compound]
ErbB2 detected by immunoblotting [1, 12]: + | ErbB2 detected by immunoblotting [1, 13]: − | ErbB2 detected by immunoblotting [1, 14]: − | ErbB2 detected by immunoblotting [1, 15]: − | ErbB2 detected by immunoblotting [1, 16]: − | ErbB2 detected by immunoblotting [1, 17]: + | ErbB2 detected by immunoblotting [1, 18]: − | ErbB2 detected by immunoblotting [1, 19]: − | ErbB2 detected by immunoblotting [1, 20]: − | Raf-1 detected by immunoblotting [2, 12]: + | Raf-1 detected by immunoblotting [2, 13]: + | Raf-1 detected by immunoblotting [2, 14]: + | Raf-1 detected by immunoblotting [2, 15]: − | Raf-1 detected by immunoblotting [2, 16]: − | Raf-1 detected by immunoblotting [2, 17]: + | Raf-1 detected by immunoblotting [2, 18]: + | Raf-1 detected by immunoblotting [2, 19]: − | Raf-1 detected by immunoblotting [2, 20]: − | IGFI-R detected by immunoblotting [3, 21]: + | IGFI-R detected by immunoblotting [3, 22]: + | IGFI-R detected by immunoblotting [3, 23]: + | IGFI-R detected by immunoblotting [3, 24]: − | ErbB2 detected by immunoblotting ([4]; exposure time 0 hours): + | ErbB2 detected by immunoblotting ([4]; exposure time 3 hours): + | ErbB2 detected by immunoblotting ([4]; exposure time 6 hours): − | ErbB2 detected by immunoblotting ([4]; exposure time 12 hours): − | ErbB2 detected by immunoblotting ([4]; exposure time 24 hours): − | androgen receptor detected by immunoblotting ([5]; exposure time 0 hours): + | androgen receptor detected by immunoblotting ([5]; exposure time 3 hours): + | androgen receptor detected by immunoblotting ([5]; exposure time 6 hours): + | androgen receptor detected by immunoblotting ([5]; exposure time 12 hours): + | androgen receptor detected by immunoblotting ([5]; exposure time 24 hours): −

COC1C=CC=C(C)C(=O)NC2=CC(=O)C(NCCCCCCN(C)CCCCCCC3(O)CCC4C5CCc6cc(O)ccc6C5CCC43C)=C(CC(C)CC(OC)C(O)C(C)C=C(C)C1OC(N)=O)C2=O (stereo not drawn) [GM-13-E2]
ErbB2 detected by immunoblotting [1, 12]: + | ErbB2 detected by immunoblotting [1, 13]: + | ErbB2 detected by immunoblotting [1, 14]: + | ErbB2 detected by immunoblotting [1, 15]: + | ErbB2 detected by immunoblotting [1, 16]: − | Raf-1 detected by immunoblotting [2, 12]: + | Raf-1 detected by immunoblotting [2, 13]: + | Raf-1 detected by immunoblotting [2, 14]: + | Raf-1 detected by immunoblotting [2, 15]: + | Raf-1 detected by immunoblotting [2, 16]: + | estrogen receptor detected by immunoblotting [6, 12]: + | estrogen receptor detected by immunoblotting [6, 13]: + | estrogen receptor detected by immunoblotting [6, 14]: + | estrogen receptor detected by immunoblotting [6, 15]: ± | estrogen receptor detected by immunoblotting [6, 16]: −

CCCCCCN(C)C=C1C(=O)OC(COC)C2(C)C1=C(O)C(=O)C1=C2C(OC(C)=O)CC2(C)C(=O)CCC12 (stereo not drawn) [E-analog 2]
inhibition of PI3 kinase activity [7]: inhibits PI3 kinase activity

COC1C=CC=C(C)C(=O)NC2=CC(=O)C(NCCCCCCC3(O)CCC4C5CCc6cc(O)ccc6C5CCC43C)=C(CC(C)CC(OC)C(O)C(C)C=C(C)C1OC(N)=O)C2=O (stereo not drawn) [FIG. 9E]
relative activity, raf-1 [8]: −

CCCCCCNC=C1C(=O)OC(COC)C2(C)C1=C(O)C(=O)C1=C2C(OC(C)=O)CC2(C)C(=O)CCC12 (stereo not drawn) [Z-analog 1]
inhibition of PI3 kinase activity [7]: inactive

COC1C=CC=C(C)C(=O)NC2=CC(=O)C(NCCCCNCCCCCCC3(O)CCC4C5CCc6cc(O)ccc6C5CCC43C)=C(CC(C)CC(OC)C(O)C(C)C=C(C)C1OC(N)=O)C2=O (stereo not drawn) [FIG. 9F]
relative activity, raf-1 [8]: −

COC1C=CC=C(C)C(=O)NC2=CC(=O)C(NCC=CCC3CC4C5CCc6cc(O)ccc6C5CCC4(C)C3O)=C(CC(C)CC(OC)C(O)C(C)C=C(C)C1OC(N)=O)C2=O (stereo not drawn) [GM-4-E2]
ErbB2 detected by immunoblotting [1, 12]: + | ErbB2 detected by immunoblotting [1, 13]: ± | ErbB2 detected by immunoblotting [1, 14]: − | ErbB2 detected by immunoblotting [1, 15]: − | ErbB2 detected by immunoblotting [1, 16]: − | ErbB2 detected by immunoblotting [1, 17]: + | ErbB2 detected by immunoblotting [1, 18]: ± | ErbB2 detected by immunoblotting [1, 19]: − | ErbB2 detected by immunoblotting [1, 20]: − | Raf-1 detected by immunoblotting [2, 12]: + | Raf-1 detected by immunoblotting [2, 13]: + | Raf-1 detected by immunoblotting [2, 14]: + | Raf-1 detected by immunoblotting [2, 15]: + | Raf-1 detected by immunoblotting [2, 16]: + | Raf-1 detected by immunoblotting [2, 17]: + | Raf-1 detected by immunoblotting [2, 18]: + | Raf-1 detected by immunoblotting [2, 19]: + | Raf-1 detected by immunoblotting [2, 20]: + | estrogen receptor detected by immunoblotting [6, 12]: + | estrogen receptor detected by immunoblotting [6, 13]: ± | estrogen receptor detected by immunoblotting [6, 14]: − | estrogen receptor detected by immunoblotting [6, 15]: − | estrogen receptor detected by immunoblotting [6, 16]: − | estrogen receptor detected by immunoblotting [6, 17]: + | estrogen receptor detected by immunoblotting [6, 18]: − | estrogen receptor detected by immunoblotting [6, 19]: − | estrogen receptor detected by immunoblotting [6, 20]: − | IGFI-R detected by immunoblotting [3, 21]: + | IGFI-R detected by immunoblotting [3, 22]: + | IGFI-R detected by immunoblotting [3, 23]: + | IGFI-R detected by immunoblotting [3, 24]: + | effect on IGF1-R compared with geldanamycin alone ([3]; Example 5, in words): less injurious to IGF1-R than geldanamycin alone | ErbB2 detected by immunoblotting ([4]; exposure time 0 hours): + | ErbB2 detected by immunoblotting ([4]; exposure time 3 hours): + | ErbB2 detected by immunoblotting ([4]; exposure time 6 hours): + | ErbB2 detected by immunoblotting ([4]; exposure time 12 hours): − | ErbB2 detected by immunoblotting ([4]; exposure time 24 hours): − | androgen receptor detected by immunoblotting ([5]; exposure time 0 hours): + | androgen receptor detected by immunoblotting ([5]; exposure time 3 hours): + | androgen receptor detected by immunoblotting ([5]; exposure time 6 hours): + | androgen receptor detected by immunoblotting ([5]; exposure time 12 hours): + | androgen receptor detected by immunoblotting ([5]; exposure time 24 hours): + | destruction of androgen receptors ([5]; in words): does not | relative activity, raf-1 [8]: − | relative activity, estrogen receptor [9]: ++++ | selectivity for estrogen receptors and ErbB2 receptors compared to geldanamycin alone [10]: most pronounced

COC1C=CC=C(C)C(=O)NC2=CC(=O)C(NCCCCNCCCCCCC3(O)CCC4C5CCc6cc(O)ccc6C5CCC43C)=C(CC(C)CC(OC)C(O)C(C)C=C(C)C1OC(N)=O)C2=O (stereo not drawn) [GM-10-E2]
ErbB2 detected by immunoblotting [1, 12]: + | ErbB2 detected by immunoblotting [1, 13]: + | ErbB2 detected by immunoblotting [1, 14]: + | ErbB2 detected by immunoblotting [1, 15]: + | ErbB2 detected by immunoblotting [1, 16]: − | Raf-1 detected by immunoblotting [2, 12]: + | Raf-1 detected by immunoblotting [2, 13]: + | Raf-1 detected by immunoblotting [2, 14]: + | Raf-1 detected by immunoblotting [2, 15]: + | Raf-1 detected by immunoblotting [2, 16]: + | estrogen receptor detected by immunoblotting [6, 12]: + | estrogen receptor detected by immunoblotting [6, 13]: + | estrogen receptor detected by immunoblotting [6, 14]: + | estrogen receptor detected by immunoblotting [6, 15]: ± | estrogen receptor detected by immunoblotting [6, 16]: +

COC1C=CC=C(C)C(=O)NC2=CC(=O)C(NCCCCCCN(C)CCCCCCC3(O)CCC4C5CCc6cc(O)ccc6C5CCC43C)=C(CC(C)CC(OC)C(O)C(C)C=C(C)C1OC(N)=O)C2=O (stereo not drawn) [FIG. 9G]
relative activity, raf-1 [8]: −

COC1C=CC=C(C)C(=O)NC2=CC(=O)C(NCCCCCCC#CC3(O)CCC4C5CCC6=CC(=O)CCC6(C)C5CCC43C)=C(CC(C)CC(OC)C(O)C(C)C=C(C)C1OC(N)=O)C2=O (stereo not drawn) [GM-T, 17-testosterone-tethered-17-demethoxy-17-GM]
reduction of levels of ErbB2 [11]: the least reduction was observed
